This note sets out measurements from US20090149584A1, “USE OF HEXAHYDROPHTHALIMIDE COMBINATIONS AS SOFTENER” (priority 2006, published 2009).

Format in all cases: physicochemical
One data set can be described thus: Boiling point.
Data set [1] is described as follows: Solution temperature for PVC in accordance with DIN 53408. From the text:
A particularly important factor for the use of plasticizers is their gelling performance for PVC. Gelling performance is the capability of a plasticizer to penetrate into the polymeric structure of the PVC and to bring about a plasticizing effect by reducing the level of interaction between the polymer chains. A measure of the gelling performance of a plasticizer is the solution temperature for PVC, determined to DIN 53408. The lower the solution temperature, the better the gelling performance. Better gelling performance or lower solution temperature of the plasticizer means that lower processing temperatures can be selected in the production of flexible PVC. Lower temperatures save energy and time.
(§1) In accordance with DIN 53408, the solution temperatures of N-2-ethylhexylhexahydrophthalimide were measured for PVC. For comparison, the solution temperatures of the known plasticizers di(2-ethylhexyl) phthalate and diisobutyl phthalate were determined. Vapor pressure measurements were carried out in accordance with annex A4 to European Commission specification 92/69/ECC, OECD test specification 104 and, respectively, EPA test specification OPPTS 830.7950. The following table compares the results.

Data set [2] is described as follows: Vapor pressure measurement (annex A4 to 92/69/ECC, OECD 104, EPA OPPTS 830.7950). On the procedure:
as §1

As to `CCCCC(CC)COC(=O)c1ccccc1C(=O)OCC(CC)CCCC` (stereo not shown) [Di(2-ethylhexyl) phthalate, di(2-ethylhexyl) phthalate], in “Boiling point”, the Boiling point is 384 °C. In data set [1], the “Solution temperature for PVC” value turned out to be 124 °C. In addition, the Vapor pressure in data set [2] (140° C.) came out at 0.04 hPa; in data set [2] (160° C.), 0.17 hPa; in data set [2] (180° C.), 0.58 hPa; in data set [2] (200° C.), 1.80 hPa.
As to `CC(C)COC(=O)c1ccccc1C(=O)OCC(C)C` [Diisobutyl phthalate, diisobutyl phthalate], the Boiling point in “Boiling point” is 295 °C. In addition, the “Solution temperature for PVC” value in data set [1] is 99 °C. Further, the Vapor pressure in data set [2] (140° C.) came out at 1.50 hPa; in data set [2] (160° C.), 4.20 hPa; in data set [2] (180° C.), 10.70 hPa; in data set [2] (200° C.), 24.40 hPa.
For N-2-ethylhexylhexahydrophthalimide, the “Solution temperature for PVC” value in data set [1] was found to be 99 °C.
